# Experimental data: patent US11229618B2 (Amarin Pharmaceuticals Ireland Limited, priority 2012, dated 2022)
# Experiments:
# [1] = MARINE: plasma fatty acid concentrations, ratios and class proportions (GC/FID); assay type: in vivo, human; details: for Mono-unsaturated, proportion to total fatty acids, Mean placebo-adjusted percent change from baseline / Total omega-6, proportion to total fatty acids, Mean placebo-adjusted percent change from baseline / Saturated, proportion to total fatty acids, Mean placebo-adjusted percent change from baseline / Total omega-3, proportion to total fatty acids, Mean placebo-adjusted percent change from baseline: Plasma; for Palmitic Mean placebo-adjusted percent change from baseline / Oleic Mean placebo-adjusted percent change from baseline / Stearic Mean placebo-adjusted percent change from baseline / Linoleic Mean placebo-adjusted percent change from baseline / DHA Mean placebo-adjusted percent change from baseline / AA Mean placebo-adjusted percent change from baseline / DPAn-3 Mean placebo-adjusted percent change from baseline: plasma, week 12
# Procedure: (§1) A multi-center, placebo-controlled randomized, double-blind, 12-week study with an open-label extension is performed to evaluate the efficacy and safety of AMR101 in patients with fasting triglyceride levels≥500 mg/dL. The primary objective of the study is to determine the efficacy of AMR101 2 g daily and 4 g daily, compared to placebo, in lowering fasting TG levels in patients with fasting TG levels≥500 mg/dL and ≤1500 mg/dL (≥5.65 mmol/L and ≤16.94 mmol/L).
# Eligible patients will be randomly assigned at Visit 4 (Week 0) to receive orally AMR101 2 g daily, AMR101 4 g daily, or placebo for the 12-week double-blind treatment period. AMR101 is provided in 1 g liquid-filled, oblong, gelatin capsules. The matching placebo capsule is filled with light liquid paraffin and contains 0 g of AMR101. During the double-blind treatment period, patients will take 2 capsules (AMR101 or matching placebo) in the morning and 2 in the evening for a total of 4 capsules per day. Patients in the AMR101 2 g/day treatment group will receive 1 AMR101 1 g capsule and 1 matching placebo capsule in the morning and in the evening. Patients in the AMR101 4 g/day treatment group will receive 2 AMR101 1 g capsules in the morning and evening.
# Lipids were extracted from plasma and RBC suspensions and converted into fatty acid methyl esters for analysis using a standard validated gas chromatography/flame ionization detection method. Fatty acid parameters were compared between EPA treatment groups and placebo using an ANCOVA model with treatment, gender, type of statin therapy, and presence of diabetes as factors, and the baseline parameter value as a covariate. LSMs, SEs, and 2-tailed 95% confidence intervals for each treatment group and for each comparison were determined.
# The monounsaturated fatty acid group included myristoleic, palmitoleic, cis-vaccenic, oleic, gondoic/gadoleic, erucic and nervonic acids. The saturated fatty acid group included myristic, palmitic, stearic, arachidic, behenic and lignoceric acids. The “total omega-3” group included α-linolenic, stearidonic, eicosatrienoic, ω-3 arachidonic, eicosapentaenoic, ω-3 docosapentaenoic and docosahecaenoic acids. The “total omega-6” group included linoleic, γ-linolenic, eicosadienoic, dihomo-γ-linolenic, ω-6 arachidonic, adrenic, and ω-6 docosapentaenoic acids. The “total fatty acid” group represented the sum of the monounsaturated, saturated, total omega-3 and total omega-6 groups.
# fasting TG levels = assay: MARINE: fasting TG lowering and LDL-C; assay type: in vivo, human; details: for median percent reductions in TG from baseline, 4 g/day compared with 2 g/day: 12 weeks
# Procedure: as §1
# The primary efficacy variable for the double-blind treatment period is percent change in TG from baseline to Week 12 endpoint. The secondary efficacy variables for the double-blind treatment period include the following: • Percent changes in total cholesterol (TC), high-density lipoprotein cholesterol (HDL-C), calculated low-density lipoprotein cholesterol (LDL-C), calculated non-high-density lipoprotein cholesterol (non-HDL-C), and very low-density lipoprotein cholesterol (VLDL-C) from baseline to Week 12 endpoint; • Percent change in very low-density lipoprotein TG from baseline to Week 12; • Percent changes in apolipoprotein A-I (apo A-I), apolipoprotein B (apo B), and apo A-I/apo B ratio from baseline to Week 12; • Percent changes in lipoprotein(a) from baseline to Week 12 (selected sites only); • Percent changes in LDL particle number and size, measured by nuclear magnetic resonance, from baseline to Week 12 (selected sites only); • Percent change in remnant-like particle cholesterol from baseline to Week 12 (selected sites only); • Percent change in oxidized LDL from baseline to Week 12 (selected sites only); • Changes in FPG and HbA1c from baseline to Week 12; • Change in insulin resistance, as assessed by the homeostasis model index insulin resistance, from baseline to Week 12; • Percent change in lipoprotein associated phospholipase A2 from baseline to Week 12 (selected sites only); • Change in intracellular adhesion molecule-1 from baseline to Week 12 (selected sites only); • Change in interleukin-6 from baseline to Week 12 (selected sites only); • Change in plasminogen activator inhibitor-1 from baseline to Week 12 (selected sites only); • Change in hsCRP from baseline to Week 12 (selected sites only); • Change in serum phospholipid EPA content from baseline to Week 12; • Change in red blood cell membrane EPA content from baseline to Week 12; and • Change in serum phospholipid and red blood cell membrane content in the following fatty acids from baseline to Week 12: docosapentaenoic acid, docosahexaenoic acid, arachidonic acid, palmitic acid, stearic acid, and oleic acid.
# MARINE and ANCHOR were 12-week, phase 3, double-blind studies that randomized patients to IPE 4 g/day, 2 g/day, or placebo. […]
# [2] = IPE 2 g/day vs placebo, P <0.0001
# [3] = IPE 4 g/day vs placebo, P <0.0001
compound,measurement,setting,value
"CC/C=C\C/C=C\C/C=C\C/C=C\C/C=C\CCCC(=O)OCC [IPE, all-cis eicosa-5,8,11,14,17-pentaenoic acid ethyl ester]","Mono-unsaturated, proportion to total fatty acids, Mean placebo-adjusted percent change from baseline","[1]; IPE 2 g/day vs placebo, P 0.0009",−7.4%
same,"Total omega-6, proportion to total fatty acids, Mean placebo-adjusted percent change from baseline","[1]; IPE 2 g/day vs placebo, P 0.3044",3.2%
same,"Saturated, proportion to total fatty acids, Mean placebo-adjusted percent change from baseline","[1]; IPE 2 g/day vs placebo, P 0.8076",−0.4%
same,"Total omega-3, proportion to total fatty acids, Mean placebo-adjusted percent change from baseline",[1]; [2],68.4%
same,"Mono-unsaturated, proportion to total fatty acids, Mean placebo-adjusted percent change from baseline","[1]; IPE 4 g/day vs placebo, P 0.0008",−7.7%
same,"Saturated, proportion to total fatty acids, Mean placebo-adjusted percent change from baseline","[1]; IPE 4 g/day vs placebo, P 0.1049",−2.8%
same,"Total omega-6, proportion to total fatty acids, Mean placebo-adjusted percent change from baseline","[1]; IPE 4 g/day vs placebo, P 0.8846",0.5%
same,"Total omega-3, proportion to total fatty acids, Mean placebo-adjusted percent change from baseline",[1]; [3],132.7%
same,Palmitic Mean placebo-adjusted percent change from baseline,"[1]; IPE 2 g/day vs placebo, P 0.0011",−23.9%
same,Oleic Mean placebo-adjusted percent change from baseline,"[1]; IPE 2 g/day vs placebo, P 0.0023",−23.8%
same,Stearic Mean placebo-adjusted percent change from baseline,"[1]; IPE 2 g/day vs placebo, P 0.0040",−20.7%
same,Linoleic Mean placebo-adjusted percent change from baseline,"[1]; IPE 2 g/day vs placebo, P 0.0136",−15.2%
same,DHA Mean placebo-adjusted percent change from baseline,"[1]; IPE 2 g/day vs placebo, P 0.7217",−2.3%
same,AA Mean placebo-adjusted percent change from baseline,[1]; [2],−16.4%
same,DPAn-3 Mean placebo-adjusted percent change from baseline,[1]; [2],107.2%
same,Oleic Mean placebo-adjusted percent change from baseline,"[1]; IPE 4 g/day vs placebo, P 0.0001",−31.9%
same,Stearic Mean placebo-adjusted percent change from baseline,"[1]; IPE 4 g/day vs placebo, P 0.0002",−28.4%
same,Linoleic Mean placebo-adjusted percent change from baseline,"[1]; IPE 4 g/day vs placebo, P 0.0003",−23.7%
same,DHA Mean placebo-adjusted percent change from baseline,"[1]; IPE 4 g/day vs placebo, P 0.7115",2.4%
same,AA Mean placebo-adjusted percent change from baseline,[1]; [3],−26.8%
same,DPAn-3 Mean placebo-adjusted percent change from baseline,[1]; [3],150.8%
same,Palmitic Mean placebo-adjusted percent change from baseline,[1]; [3],−34.4%
same,effect on LDL-C,fasting TG levels,without raising LDL-C
same,"median percent reductions in TG from baseline, 4 g/day compared with 2 g/day",fasting TG levels,higher with IPE 4 g/day than with 2 g/day
same,"median percent reductions in TG from baseline, 4 g/day compared with 2 g/day",fasting TG levels; listed as EPA,higher for subjects administered about 4 grams of EPA per day
same,effect on TG levels,fasting TG levels; patients with very high TG levels,significantly reduced TG levels
